# According to US9808469B2, “Antitumor activity of multi-kinase inhibitors in triple negative breast cancer” (ENTRECHEM, S.L, priority 2014, dated 2017):
# Like-named read-outs stand apart in the source and are kept apart here.
# Tests used:
# BT-549 cells = test: MTT metabolization, inhibition of BT-549 cell proliferation; type: cell-based; settings: Homo sapiens, read-out: Percentage inhibition Formula (III) mean
# Method: (§1) These triple negative breast cancer cell lines were obtained from the American Type Culture Collection Cell Biology Collection (ATCC) (Manassas, Va.). The medium was changed every 2 days.
# (§2) Cell proliferation and growth experiments were carried out using 3-(4,5-dimethylthiazol-2-yl)-2,5-diphenyltetrazolium bromide (MTT) uptake assays, where MTT is reduced to purple formazan by the mitochondria of living cells. Increase in cell number is detected by augmented MTT metabolization, and decrease in cell number is reflected by a decrease. […] The cells were treated with the drug at different concentrations to plot the dose-response curves in all cancer cell lines using in the study. […] After treatment, each well was replaced with 250 μL of fresh medium containing MTT ([…]) and incubated for 1 hour. The medium was then removed and 500 μL of dimethyl sulfoxide was added to each well. The plate was agitated in the dark for 5 minutes to dissolve the MTT-formazan crystals. The absorbance of the samples was recorded at 562 nm in a multi-well plate reader (BMG labtech). Results were plotted as the mean values of quadruplicates from a representative experiment that was repeated at least two independent times.
# (§3) Combination index values less than 1 indicate synergism, values equal to 1 indicate an additive effect, whereas values greater than 1 indicate antagonism. Combination index values from three independent experiments were generated.
# HS578T cells [1] = test: MTT metabolization, inhibition of HS578T cell proliferation; type: cell-based; settings: Homo sapiens, Hs-578T, read-out: Percentage inhibition Formula (III) mean
# Method: as §1, §2, §3
# MDA-MB-231 cells = test: Cell cycle analysis by flow cytometry (propidium iodide); type: cell-based; settings: 500 nM, 24 h
# Method: (§4) Cell cycle analyses and evaluation of apoptosis were performed by flow cytometry using propidium iodide and Annexin V, respectively.
# For cell cycle analyses, HS578T, BT549 and MDA-MB-231 cells were cultured in 100-mm culture dishes, grown to 70% confluence, and treated with 500 nM Formula (III) for 24 h. Cell monolayers were then incubated in trypsin-EDTA and resuspended in 1 mL of PBS. After three washes with PBS, the cell pellets were resuspended in ice cold 70% ethanol for 2 min and centrifuged 5 min at 1800 rpm. The cell pellets were treated with 1 mL of propidium iodide (PI) staining solution (PBS containing 50 μg/mL of PI, 0.5% Tween 20, 0.1 μg/mL RNase A) (BD Biosciences) and incubated in the dark for 1 h. DNA content and cell cycle analyses were performed by using a FACS canto II flow cytometer and the CellQuest software (BD Biosciences).
# [2] = tested on: HS578T, BT549 and MDA-MB-231 cells; test: Apoptosis by Annexin V staining, single agent; type: cell-based; settings: 500 nM, 24 and 48 hours
# Method: as §4
# For apoptosis analyses, HS578T, BT549 and MDA-MB-231 cell monolayers were incubated in trypsin-EDTA, washed twice with cold PBS, and then resuspended in binding buffer (10 mM HEPES free acid [pH 7.4], 140 mM NaCl, 2.5 mM CaCl2) at a concentration of 1×10^6 cells per mL. A total of 1×10^5 cells were incubated for 15 minutes in the dark with Annexin V-APC (BD Biosciences) and propidium iodide (PI) staining solution (5 μL Annexin V-[…], 10 μL of PI [[…] final concentration], 400 μL binding buffer).
# HS578T cells [3] = test: Western Blot of DNA damage and cell cycle markers; type: cell-based; settings: 500 nM, up to 24 h
# Method: Western-blot and phospho-array kits were used for evaluation of signaling intermediates.
# HS578T and BT549 cell lines were grown in DMEM 10% of FBS and at 70% confluence were treated with Formula (III) at 500 nM for 6, 12 and 24 hours. Cells were washed with phosphate-buffered saline (PBS) (137 mM NaCl, 2.7 mM KCl, 8 mM Na2HPO4, 1.5 mM KH2PO4) and lysed in ice-cold lysis buffer (20 mM Tris-HCl [pH 7.0], 140 mM NaCl, 50 mM EDTA, 10% glycerol, 1% Nonidet P-40, 1 μM pepstatin, 1 μg/mL aprotinin, 1 μg/mL leupeptin, 1 mM phenylmethyl sulfonyl fluoride, 1 mM sodium orthovanadate). Lysates were centrifuged at 10000 g at 4° C. for 10 minutes. The protein level in the supernatants was quantified using BCA protein assay (Sigma Aldrich). A total of 50 μg of protein of each sample was used for analysis. Samples were then boiled in electrophoresis sample buffer and placed on 6%-15% sodium dodecyl sulfate-polyacrylamide gel electrophoresis (SDS-PAGE) gels, depending on the molecular weight of the proteins to be analyzed. Briefly, after electrophoresis, proteins in gels were transferred to polyvinylidene difluoride membranes (Millipore Corporation). Membranes were blocked in Tris-buffered saline with Tween (TBST) (100 mM Tris [pH 7.5], 150 mM NaCl, 0.05% Tween 20) containing 1% of bovine serum albumin for 1 h and then incubated overnight with the corresponding antibody. Anti-pS473-AKT and anti-pT308-AKT were purchased from Santa Cruz; Anti-pS6, anti-pSTAT3 and anti-GADPH were purchased from Cell Signalling Technology; Anti-pH3, were purchased from Millipore-Cell Signaling; anti-p-H2AX were purchased from BD Biosciences. After washing with TBST, membranes were incubated with HRP-conjugated anti-mouse or anti-rabbit secondary antibodies (1:5000 dilution) for 1 hour and bands were visualized by using ECL Plus Western Blotting Detection System (GE Healthcare, Buckinghamshire, United Kingdom).
# animal models = test: Studies in animal models; settings: in vivo
smiles,measurement,setting,value
C[C@]12O[C@H](C[C@@H](O)[C@H]1O)n1c3ccccc3c3c4c(c5c6ccccc6n2c5c31)C(=O)NC4=O [Formula (III)],inhibition at 0.1 µM,"BT-549 cells; BT-549, Formula (III) 100 nM alone (Table 9)",68.8%
same,inhibition at 0.1 µM,"BT-549 cells; BT-549, Formula (III) 100 nM alone (Table 10)",90.8%
same,inhibition at 0.12 µM,"BT-549 cells; BT-549, Formula (III) 120 nM alone (Table 7)",75.5%
same,inhibition at 0.12 µM,"BT-549 cells; BT-549, Formula (III) 120 nM alone",75.5%
same,inhibition at 0.18 µM,"BT-549 cells; BT-549, Formula (III) 180 nM alone (Table 7)",63.7%
same,inhibition at 0.18 µM,"BT-549 cells; BT-549, Formula (III) 180 nM alone",63.7%
same,inhibition at 0.2 µM,"BT-549 cells; BT-549, Formula (III) 200 nM alone (Table 8)",98.5%
same,inhibition at 0.2 µM,"BT-549 cells; BT-549, Formula (III) 200 nM alone (Table 9)",72.1%
same,inhibition at 0.2 µM,"BT-549 cells; BT-549, Formula (III) 200 nM alone (Table 10)",71.4%
same,inhibition at 0.24 µM,"BT-549 cells; BT-549, Formula (III) 240 nM alone (Table 7)",45%
same,inhibition at 0.24 µM,"BT-549 cells; BT-549, Formula (III) 240 nM alone",45%
same,inhibition at 0.26 µM,"BT-549 cells; BT-549, Formula (III) 260 nM alone (Table 8)",92.9%
same,inhibition at 0.3 µM,"BT-549 cells; BT-549, Formula (III) 300 nM alone (Table 7)",31.9%
same,inhibition at 0.3 µM,"BT-549 cells; BT-549, Formula (III) 300 nM alone (Table 8)",78%
same,inhibition at 0.3 µM,"BT-549 cells; BT-549, Formula (III) 300 nM alone (Table 9)",55.9%
same,inhibition at 0.3 µM,"BT-549 cells; BT-549, Formula (III) 300 nM alone (Table 10)",62.8%
same,inhibition at 0.3 µM,"BT-549 cells; BT-549, Formula (III) 300 nM alone",31.9%
same,inhibition at 0.38 µM,"BT-549 cells; BT-549, Formula (III) 380 nM alone (Table 8)",75.8%
same,inhibition at 0.4 µM,"BT-549 cells; BT-549, Formula (III) 400 nM alone (Table 9)",36.3%
same,inhibition at 0.4 µM,"BT-549 cells; BT-549, Formula (III) 400 nM alone (Table 10)",38.5%
same,percent inhibition of cell proliferation at 0.1 µM,HS578T cells [1]; Formula (III) 100 nM alone (Table 14),76.2%
same,percent inhibition of cell proliferation at 0.1 µM,HS578T cells [1]; Formula (III) 100 nM alone (Table 15),93.5%
same,percent inhibition of cell proliferation at 0.12 µM,HS578T cells [1]; Formula (III) 120 nM alone (Table 12),74.9%
same,percent inhibition of cell proliferation at 0.12 µM,HS578T cells [1]; Formula (III) 120 nM alone,74.9%
same,percent inhibition of cell proliferation at 0.18 µM,HS578T cells [1]; Formula (III) 180 nM alone (Table 12),67.5%
same,percent inhibition of cell proliferation at 0.18 µM,HS578T cells [1]; Formula (III) 180 nM alone,67.5%
same,percent inhibition of cell proliferation at 0.2 µM,HS578T cells [1]; Formula (III) 200 nM alone (Table 13),67.8%
same,percent inhibition of cell proliferation at 0.2 µM,HS578T cells [1]; Formula (III) 200 nM alone (Table 14),72.4%
same,percent inhibition of cell proliferation at 0.2 µM,HS578T cells [1]; Formula (III) 200 nM alone (Table 15),77.6%
same,percent inhibition of cell proliferation at 0.24 µM,HS578T cells [1]; Formula (III) 240 nM alone (Table 12),50.8%
same,percent inhibition of cell proliferation at 0.24 µM,HS578T cells [1]; Formula (III) 240 nM alone,50.8%
same,percent inhibition of cell proliferation at 0.26 µM,HS578T cells [1]; Formula (III) 260 nM alone (Table 13),59.9%
same,percent inhibition of cell proliferation at 0.3 µM,HS578T cells [1]; Formula (III) 300 nM alone (Table 12),46.8%
same,percent inhibition of cell proliferation at 0.3 µM,HS578T cells [1]; Formula (III) 300 nM alone (Table 13),52.2%
same,percent inhibition of cell proliferation at 0.3 µM,HS578T cells [1]; Formula (III) 300 nM alone (Table 14),66.3%
same,percent inhibition of cell proliferation at 0.3 µM,HS578T cells [1]; Formula (III) 300 nM alone (Table 15),72.3%
same,percent inhibition of cell proliferation at 0.3 µM,HS578T cells [1]; Formula (III) 300 nM alone,46.8%
same,percent inhibition of cell proliferation at 0.38 µM,HS578T cells [1]; Formula (III) 380 nM alone (Table 13),48.9%
same,percent inhibition of cell proliferation at 0.4 µM,HS578T cells [1]; Formula (III) 400 nM alone (Table 14),57.4%
same,percent inhibition of cell proliferation at 0.4 µM,HS578T cells [1]; Formula (III) 400 nM alone (Table 15),66.6%
same,increase of cells in G2/M phase,MDA-MB-231 cells,18%
same,apoptosis (Annexin V staining),[2],"an increase at 48 hours, more evident in HS578T"
same,Cyclin B and p-Cdc2 levels,HS578T cells [3],increase
same,cyclin D and Cyclin A levels,HS578T cells [3],down-regulated
same,phosphorylated levels of γH2AX,HS578T cells [3],increase in the phosphorylated levels of γH2AX in a time dependent manner
same,phosphorylation of p53 and chk2,HS578T cells [3],induced the phosphorylation of p53 and chk2
same,toxicities in animal models,animal models,no evidence of toxicities
